Data from patent US12281084B2, “Acetyl-CoA synthetase 2 (ACSS2) inhibitors and methods using same” (The Wistar Institute, priority 2019, dated 2025).

Target: T1, recombinant human ACSS2 (Homo sapiens, UniProt Q9NR19)
T1 construct: purchased Origene TP304260
Assay: ACSS2 biochemical assay (Transcreener AMP assay)
Conditions: in vitro biochemical TranScreener assay; mean±S.D., n≥3 (FIG. 1C)
Description: ACSS2 enzyme activity was measured using the TRANSCREENER® TRF AMP/GMP assay (Bellbrook Labs). Recombinant ACSS2 was purchased from Origene. The assay was performed in white, opaque, low volume 384 well plates. Test compounds were diluted in 100% DMSO and then 100 nL of each dilution was transferred using the Janus MDT Nanohead to assay plates containing 3 μL ACSS2 (2.5 nM) in assay buffer (30 mM HEPES, pH 7.4, 140 mM NaCl, 2 mM MgCl2, 5 mM sodium acetate, 2 mM DTT, 0.005% Brij35). Three microliters of substrate mix containing 100 μM ATP and 10 μM coenzyme A was added to the plates followed by a 120 min incubation. The final concentrations of enzyme and substrates in the reaction mix was 1.25 nM ACSS2, 50 μM ATP, and 5 μM coenzyme A. After incubation, 3 μL of terbium conjugated AMP antibody and AMP tracer was added to the plates according to the methods described by BellBrook Labs. After an additional 30 min, the HTRF signal was measured using an Envision Plate reader. Data were normalized to % inhibition, where 100% inhibition is equal to the counts obtained in the absence of ACSS2, and 0% inhibition is equal to the counts obtained in the complete reaction including a DMSO control.
A robust biochemical screening assay was set up for testing compounds as potential ACSS2 inhibitors. […]

T1 sequence (Q9NR19 whole entry): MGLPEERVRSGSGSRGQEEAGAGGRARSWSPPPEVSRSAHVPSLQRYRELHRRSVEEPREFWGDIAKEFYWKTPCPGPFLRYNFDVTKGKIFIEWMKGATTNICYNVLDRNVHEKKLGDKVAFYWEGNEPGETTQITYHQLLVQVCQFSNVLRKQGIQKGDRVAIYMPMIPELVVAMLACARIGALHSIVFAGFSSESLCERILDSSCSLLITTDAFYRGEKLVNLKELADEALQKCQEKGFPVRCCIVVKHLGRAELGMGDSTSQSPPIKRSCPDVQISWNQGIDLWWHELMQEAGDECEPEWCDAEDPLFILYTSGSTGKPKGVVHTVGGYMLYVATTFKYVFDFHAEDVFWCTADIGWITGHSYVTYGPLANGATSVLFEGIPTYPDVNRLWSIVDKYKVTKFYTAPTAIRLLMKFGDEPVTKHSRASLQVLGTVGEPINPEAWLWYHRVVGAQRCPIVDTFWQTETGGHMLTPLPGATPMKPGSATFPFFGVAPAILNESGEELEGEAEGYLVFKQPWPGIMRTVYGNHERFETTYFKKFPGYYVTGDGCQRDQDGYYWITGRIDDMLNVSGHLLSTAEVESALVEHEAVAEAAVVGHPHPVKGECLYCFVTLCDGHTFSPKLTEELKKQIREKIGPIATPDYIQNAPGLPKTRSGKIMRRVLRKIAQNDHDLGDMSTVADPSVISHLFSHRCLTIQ

COCCNC(=O)Nc1ccc2nc(-c3cccs3)c(-c3cccs3)nc2c1 [VY-3-249, 1-(2,3-di(thiophen-2-yl)quinoxalin-6-yl)-3-(2-methoxyethyl)urea]
IC50: 1210 ± 128 nM
